Converted amounts (≈) assume the structure as drawn. “Also recorded” adds a separate entry of the source.
Columns and labels:
P. gingivalis ATCC 33277 = experiment: Growth curves, OD at 600 nm; assay type: cell-based, Porphyromonas gingivalis; settings: laboratory strain ATCC 33277, Fig. 6A
Procedure: (§1) In addition, we monitored the growth of two P. gingivalis strains ([…] and J374-1) by measuring the OD at 600 nm at different time points (it was not possible to make continuous measurements due to the anaerobic growth conditions of P. gingivalis), with the OD600 being recorded at 0 h, 16 h, 20 h, 24 h, and 42 h.

P. gingivalis J374-1 = experiment: Growth curves, OD at 600 nm; assay type: cell-based, Porphyromonas gingivalis; settings: clinical isolate J374-1, Fig. 6B
Procedure: as §1

[1] = tested on: Porpyhromonas gingivalis M5-1-2 (clinical isolate); experiment: MIC, micro-broth dilution; assay type: cell-based, Porphyromonas gingivalis
Procedure: (§2) The micro-broth dilution technique was used to determine MICs. After subcultivation of bacterial strains and checking of purity, a defined inoculum was added to Wilkins–Chalgren broth (Oxoid) supplemented with 10 μg/ml β-NAD (Sigma-Aldrich) containing the inhibitor. A twofold dilution series was made, starting from 2 mM (final concentration) of the inhibitor. The growth control contained 10% of the inhibitor dissolvent at 2 mM (0.01% DMSO in a buffer with 50 mM TRIS, pH 8, and 50 mM NaCl). After an incubation period of 42 h (18 h for the aerobic S. gordonii), the growth of microbes was analyzed by visual analysis of the turbidity. MIC represents the lowest concentration without visible turbidity. All experiments were made using independent replicates.

[2] = tested on: Porpyhromonas gingivalis ATCC 33277; experiment: MIC, micro-broth dilution; assay type: cell-based, Porphyromonas gingivalis
Procedure: as §2

[3] = tested on: Porpyhromonas gingivalis J374–1 (clinical isolate); experiment: MIC, micro-broth dilution; assay type: cell-based, Porphyromonas gingivalis
Procedure: as §2

HsQC = HsQC (Homo sapiens, UniProt Q16769); experiment: QC inhibition assay with fluorogenic substrate H-Gln-AMC (Ki); assay type: biochemical; settings: read-out: Ki value for HsQC
[4] = tested on: Fusobacterium nucleatum ATCC 25586; experiment: MIC, micro-broth dilution; assay type: cell-based
Procedure: as §2

[5] = tested on: Tannerella forsythia ATCC 43037; experiment: MIC, micro-broth dilution; assay type: cell-based
Procedure: as §2

[6] = tested on: Prevotella intermedia ATCC 25611; experiment: MIC, micro-broth dilution; assay type: cell-based
Procedure: as §2

[7] = tested on: Streptococcus gordonii ATCC 10558; experiment: MIC, micro-broth dilution; assay type: cell-based
Procedure: as §2

PgQC = PgQC (Porphyromonas gingivalis, UniProt Q7MT37); experiment: QC inhibition assay with fluorogenic substrate H-Gln-AMC (Ki); assay type: biochemical; parameters: His-tag (pET28a, thrombin-cleavable) (N, cleaved yes); made in house; host or cells: E. coli Rosetta(DE3)pLysS; settings: Ki value for PgQC
Procedure: Inhibitory constants were determined using concentrations of H-Gln-AMC varying from 1/4 KM to 2 KM and a final concentration of bacterial QC in a range between 25 nM and 50 nM. Progress curves were fitted to the general equation for competitive inhibition.

Sequence of PgQC (Q7MT37 entry or part of it): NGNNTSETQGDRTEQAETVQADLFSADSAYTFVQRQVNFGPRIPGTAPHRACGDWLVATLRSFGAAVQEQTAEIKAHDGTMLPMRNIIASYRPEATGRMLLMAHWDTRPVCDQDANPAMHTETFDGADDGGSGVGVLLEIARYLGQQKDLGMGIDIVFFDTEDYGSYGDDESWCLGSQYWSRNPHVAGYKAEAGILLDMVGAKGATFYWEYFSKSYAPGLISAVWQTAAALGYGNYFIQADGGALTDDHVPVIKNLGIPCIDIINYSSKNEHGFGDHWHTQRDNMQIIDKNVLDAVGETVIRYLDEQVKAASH
Sequence of HsQC (Q16769 29-361): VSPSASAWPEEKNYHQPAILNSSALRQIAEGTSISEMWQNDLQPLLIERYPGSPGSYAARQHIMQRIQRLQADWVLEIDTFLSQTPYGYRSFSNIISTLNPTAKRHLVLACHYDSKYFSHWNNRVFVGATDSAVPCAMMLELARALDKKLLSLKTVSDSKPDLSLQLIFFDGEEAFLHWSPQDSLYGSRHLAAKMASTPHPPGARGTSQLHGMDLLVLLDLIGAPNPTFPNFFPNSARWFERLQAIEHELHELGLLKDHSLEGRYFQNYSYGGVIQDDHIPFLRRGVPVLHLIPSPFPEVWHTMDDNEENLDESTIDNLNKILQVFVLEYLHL

What does the source list for `Clc1ccc(CNc2cnc3nc[nH]c3c2)cc1` [S-316, N-(4-chlorobenzyl)imidazo[4,5-b]pyridin-6-amine]?
P. gingivalis growth inhibition, dependence on concentration (P. gingivalis ATCC 33277): dose-dependent; also recorded: concentration-dependent manner; P. gingivalis growth inhibition, dependence on concentration (P. gingivalis J374-1): dose-dependent; also recorded: concentration-dependent manner; MIC in words ([1]; P. gingivalis clinical isolate): submillimolar; MIC ([1]; Porphyromonas gingivalis, P. gingivalis M5-1-2 clinical isolate, 42 h): 250 µM (≈ 64.7 µg/mL); MIC in words ([2]; P. gingivalis laboratory strain): submillimolar; MIC ([2]; Porphyromonas gingivalis, ATCC33277, P. gingivalis ATCC 33277, 42 h): 500 µM (≈ 129 µg/mL); MIC in words ([3]; P. gingivalis clinical isolate): submillimolar; MIC ([3]; Porphyromonas gingivalis, P. gingivalis J374–1 clinical isolate, 42 h): 500 µM (≈ 129 µg/mL); Ki (HsQC): 655 ± 27 nM; MIC ([4]; Fusobacterium nucleatum, ATCC25586, F. nucleatum ATCC 25586, 42 h): > 2000 µM; Growth attenuation ([4]; Gram-negative F. nucleatum, no QC-like enzyme): did not result in growth attenuation; MIC in words ([5]; T. forsythia): submillimolar; MIC ([5]; Tannerella forsythia, ATCC43037, T. forsythia ATCC 43037, 42 h): 500 µM (≈ 129 µg/mL); MIC in words ([6]; P. intermedia): submillimolar; MIC ([6]; Prevotella intermedia, ATCC25611, P. intermedia ATCC 25611, 42 h): 125 µM (≈ 32.3 µg/mL); Growth attenuation ([7]; Gram-positive S. gordonii, no QC-like enzyme): did not result in growth attenuation; MIC ([7]; Streptococcus gordonii, ATCC10558, S. gordonii ATCC 10558, 18 h): > 2000 µM; Ki (PgQC): 53 ± 1.1 nM

Source: article PMC7948796, “Mammalian-like type II glutaminyl cyclases in Porphyromonas gingivalis and other oral pathogenic bacteria as targets for treatment of periodontitis” (The Journal of Biological Chemistry, 2021)
